{
  "source": "paper PMC5039936",
  "about": "(Clinical Pharmacology and Therapeutics, 2015)",
  "key": {"[1]": {"assay": "Phase 1 single-dose renal impairment study C21010, plasma PK", "format": "in vivo, human", "details": "for AUC(0-inf): human, plasma, po, 200 mg, AUCinf, geometric LSM, single oral 200 mg dose; for increase in mean AUCinf compared with normal renal function: single 200 mg dose"}, "[2]": {"assay": "Population PK model of plasma orteronel in patients with mCRPC", "format": "in vivo, human"}, "[3]": {"assay": "Phase 1 renal impairment study C21010, urine PK", "format": "in vivo, human", "details": "geometric mean; for CL renal: human, urine, oral, 200 mg, CLrenal"}, "[4]": {"assay": "In vitro clearance in human hepatocytes", "format": "in vitro ADME"}, "[5]": {"assay": "In vitro clearance in human liver microsomes", "format": "in vitro ADME"}, "[6]": {"details": "ref unpublished data, Suri, A., Pusalkar, S., Li, Y., & Prakash, S. Clin. Pharmacol. Drug Development 2015, cited from earlier work"}, "[7]": {"assay": "Plasma protein binding by rapid equilibrium dialysis in study C21010", "format": "in vitro ADME", "details": "human, oral, 200 mg, mean percent unbound of orteronel in plasma, range across the renal function groups"}},
  "note": "Values joined by “and” are separate entries in the source; they are usually repeats but may differ in a detail not shown here. Equal values may be shown once.",
  "data": [
    {"smiles": "CNC(=O)c1ccc2cc([C@@]3(O)CCn4cncc43)ccc2c1", "note": "[orteronel]", "values": [
      {"measurement": "slope of regression of CL/F vs CLcr", "setting": "[1]; CL/F = 10.90 + 0.101*CLcr, r2 = 0.2177", "value": 0.101},
      {"measurement": "AUC(0-inf)", "setting": "[1]; mild chronic renal impairment (CLcr ≥60–89 mL/min)", "value": 11300, "unit": "ng·h/mL"},
      {"measurement": "AUC(0-inf)", "setting": "[1]; moderate chronic renal impairment (CLcr ≥30–59 mL/min)", "value": 13100, "unit": "ng·h/mL"},
      {"measurement": "AUC(0-inf)", "setting": "[1]; normal renal function (CLcr ≥90 mL/min), fasted", "value": 9500, "unit": "ng·h/mL"},
      {"measurement": "AUC(0-inf)", "setting": "[1]; severe chronic renal impairment (CLcr ≥15–29 mL/min)", "value": 17800, "unit": "ng·h/mL"},
      {"measurement": "increase in mean AUCinf compared with normal renal function", "setting": "[1]; mild chronic RI", "value": "18.6% and 19%"},
      {"measurement": "increase in mean AUCinf compared with normal renal function", "setting": "[1]; moderate chronic RI", "value": "38% and 38.4%"},
      {"measurement": "increase in mean AUCinf compared with normal renal function", "setting": "[1]; severe chronic RI", "value": "87% and 87.1%"},
      {"measurement": "ka", "setting": "[2]; base model, mean (SD)", "value": "2.1 (0.2) h^−1"},
      {"measurement": "predicted decrease in CL/F", "setting": "[2]; final PK model, reduction in CLcr from 92 to 46 mL/min", "value": 28, "unit": "%"},
      {"measurement": "BILI on ka", "setting": "[2]; final model covariate effect, mean (SD)", "value": "–0.46 (0.20)"},
      {"measurement": "CL/F", "setting": "[2]; final model, mean (SD)", "value": 17.7, "unit": "L/h"},
      {"measurement": "V/F", "setting": "[2]; final model, mean (SD)", "value": 261, "unit": "L"},
      {"measurement": "ka", "setting": "[2]; final model, mean (SD)", "value": "2.2 (0.3) h^−1"},
      {"measurement": "CL renal", "setting": "[3]; mild chronic RI", "value": 97.8, "unit": "mL/min"},
      {"measurement": "CL renal", "setting": "[3]; moderate chronic RI", "value": 49.2, "unit": "mL/min"},
      {"measurement": "CL renal", "setting": "[3]; normal renal function", "value": 158, "unit": "mL/min"},
      {"measurement": "CL renal", "setting": "[3]; severe chronic RI", "value": 25.8, "unit": "mL/min"},
      {"measurement": "fraction of dose excreted as unchanged orteronel (Fe)", "setting": "[3]; mild chronic RI", "value": 33.1, "unit": "%"},
      {"measurement": "fraction of dose excreted as unchanged orteronel (Fe)", "setting": "[3]; moderate chronic RI", "value": 19.4, "unit": "%"},
      {"measurement": "fraction of dose excreted as unchanged orteronel (Fe)", "setting": "[3]; normal renal function", "value": 44.9, "unit": "%"},
      {"measurement": "fraction of dose excreted as unchanged orteronel (Fe)", "setting": "[3]; severe chronic RI", "value": 13.8, "unit": "%"},
      {"measurement": "in vitro clearance", "setting": "[4]", "value": "no appreciable in vitro clearance"},
      {"measurement": "in vitro clearance", "setting": "[5]", "value": "no appreciable in vitro clearance"},
      {"measurement": "share of orteronel CL characterized as renal CL", "setting": "[6]; intact parent compound in urine", "value": 53, "unit": "%"},
      {"measurement": "share of CL characterized as other CL", "setting": "[6]; metabolites formed via hydrolysis, neither renal nor hepatic", "value": 19, "unit": "%"},
      {"measurement": "fraction unbound at 2 h", "setting": "[7]", "value": "0.547 to 0.589"}
    ]}
  ]
}
